The source of these data is publication PMC6269038, “A Novel Class of Selective Acetylcholinesterase Inhibitors: Synthesis and Evaluation of (E)-2-(Benzo[d]thiazol-2-yl)-3-heteroarylacrylonitriles” (Molecules, 2012).

“And” between values parts separate entries of the source, which are not always exact repeats. Identical values can stand only once.

Assay [1] has as its target T1, butyrylcholinesterase (BuChE) from equine serum (Equus caballus, UniProt P81908).
T1 construct: an AChE/BuChE solution (50 μL, 0.25 unit/mL) from Electroporus electricus and equine serum, respectively; from tissue; host or cells: equine serum
The experiment in a line: BuChE inhibition, Ellman method, 96-well plates. The settings on record: average from three independent experiments, ^c = IC50 greater than 0.5 mg/mL. It is filed as biochemical.

Assay [2] concerns the target AChE (Electrophorus electricus) (Electrophorus electricus, UniProt O42275). The experiment in a line: biochemical. The settings on record: for IC50: AChE from Electrophorus electricus, average from three independent experiments, ^c = IC50 greater than 0.5 mg/mL.
A further assay concerns the target AChE (Electrophorus electricus, UniProt O42275). Nature of the assay: Kinetic characterization of AChE inhibition (Lineweaver-Burk, Ellman's method). It is filed as biochemical. The settings on record: substrate acetylthiocholine; for type of AChE inhibition: Lineweaver-Burk plots, AChE 0.02U; for Vmax: in presence of inhibitor, nonlinear regression. The procedure: The kinetics of this new class of AChE inhibitors were studied in detail using compounds 7f and 7g as examples. The nature of AChE inhibition, caused by these two compounds, was investigated by the graphical analysis of steady-state inhibition data (Figure 2A,B). […] The values of Km and Vmax were calculated by nonlinear regression according to studies by Abell et al., where Vmax was maintained at the same value while Km value was increased.
Figure 2 Lineweaver-Burk plot of AChE (0.02U) with substrate acetylthiocholine, in the absence and presence of inhibitors 7g (A), 7f (B).
Kinetic characterization of AChE was performed by means of Ellman’s method. […]. Enzyme kinetic characterization studies were performed under same incubation conditions as described above using acetylthiocholine as substrate and DTNB was used as chromophoric reagent. A parallel control with no inhibitor in the mixture was used for comparison. Each concentration was analyzed in triplicate; and Lineweaver-Burk (1/V vs. 1/[S]) plot was constructed using Sigma Plot 10.0 version software.

T1 sequence (P81908 whole entry): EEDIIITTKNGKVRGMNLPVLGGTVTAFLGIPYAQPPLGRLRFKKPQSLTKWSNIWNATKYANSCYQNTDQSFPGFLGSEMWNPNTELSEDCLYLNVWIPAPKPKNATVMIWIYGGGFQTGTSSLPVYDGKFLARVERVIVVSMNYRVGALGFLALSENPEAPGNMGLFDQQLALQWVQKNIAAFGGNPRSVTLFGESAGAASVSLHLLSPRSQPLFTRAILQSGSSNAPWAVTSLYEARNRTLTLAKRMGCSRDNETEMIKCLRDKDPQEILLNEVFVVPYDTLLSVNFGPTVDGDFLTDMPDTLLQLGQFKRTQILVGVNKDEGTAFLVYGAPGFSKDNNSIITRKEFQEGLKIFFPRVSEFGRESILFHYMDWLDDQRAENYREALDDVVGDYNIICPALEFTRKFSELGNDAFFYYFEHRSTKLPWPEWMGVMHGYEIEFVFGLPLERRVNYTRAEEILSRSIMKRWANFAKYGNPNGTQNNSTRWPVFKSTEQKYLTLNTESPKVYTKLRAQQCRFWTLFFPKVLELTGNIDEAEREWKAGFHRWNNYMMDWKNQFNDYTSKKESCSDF
Chain of AChE (Electrophorus electricus) (O42275 24-633): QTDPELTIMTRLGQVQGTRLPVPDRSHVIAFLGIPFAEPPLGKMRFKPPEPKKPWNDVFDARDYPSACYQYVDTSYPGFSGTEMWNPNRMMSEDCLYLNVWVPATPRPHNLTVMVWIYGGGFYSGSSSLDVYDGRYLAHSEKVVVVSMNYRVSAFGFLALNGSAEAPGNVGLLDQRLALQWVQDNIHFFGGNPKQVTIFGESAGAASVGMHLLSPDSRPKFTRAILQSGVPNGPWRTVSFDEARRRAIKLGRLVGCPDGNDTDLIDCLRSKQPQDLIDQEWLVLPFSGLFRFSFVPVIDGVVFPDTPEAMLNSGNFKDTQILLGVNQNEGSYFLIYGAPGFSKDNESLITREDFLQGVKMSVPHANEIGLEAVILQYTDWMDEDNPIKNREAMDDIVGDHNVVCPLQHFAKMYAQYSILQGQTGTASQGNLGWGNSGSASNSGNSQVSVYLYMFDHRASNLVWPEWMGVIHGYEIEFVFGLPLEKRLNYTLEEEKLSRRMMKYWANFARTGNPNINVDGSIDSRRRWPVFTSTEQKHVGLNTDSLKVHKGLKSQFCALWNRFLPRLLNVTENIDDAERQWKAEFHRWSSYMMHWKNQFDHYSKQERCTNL
Chain of AChE (O42275 24-633): as above

Consider `Cc1cc(/C=C(\C#N)c2nc3ccccc3s2)no1` [7a, (E)-2-(Benzo[d]thiazol-2-yl)-3-(5-methylisoxazol-3-yl)acrylonitrile], for which the concentration for half-maximal inhibition (IC50) in assay [1] was above 1870 µM; in assay [2] it was 1274 ± 0.7 µM.

With `N#C/C(=C\c1cc(-c2ccccc2)on1)c1nc2ccccc2s1` [7b, (E)-2-(Benzo[d]thiazol-2-yl)-3-(5-phenylisoxazol-3-yl)acrylonitrile], the half-maximal inhibitory concentration (IC50) in assay [1] came to 1396.6 ± 0.8 µM; in assay [2] it was 1179 ± 0.5 µM.

As for `N#C/C(=C\c1cc(-c2ccc(F)cc2)on1)c1nc2ccccc2s1` [7c, (E)-2-(Benzo[d]thiazol-2-yl)-3-[5-(4-fluorophenyl)isoxazol-3-yl]acrylonitrile], the half-inhibitory concentration (IC50) in assay [1] was above 1440 µM; in assay [2] it was 699 ± 0.3 µM.

With `N#C/C(=C\c1ccc(N2CCOCC2)cc1)c1nc2ccccc2s1` [7d, (E)-2-(Benzo[d]thiazol-2-yl)-3-(4-morpholin-4-ylphenyl)acrylonitrile], the 50% inhibitory concentration (IC50) in assay [1] was above 1440 µM; in assay [2], 504 ± 1 µM.

`N#C/C(=C\c1ncc[nH]1)c1nc2ccccc2s1` [7e, (E)-2-(Benzo[d]thiazol-2-yl)-3-(1H-imidazol-2-yl)acrylonitrile]: the figures for the IC50 in assay [1] and in assay [2] were above 1980 µM and 303 ± 0.8 µM, respectively.

Regarding `N#C/C(=C\c1cccnc1)c1nc2ccccc2s1` [7f, (E)-2-(Benzo[d]thiazol-2-yl)-3-(pyridin-3-yl)acrylonitrile], at AChE, the “type of AChE inhibition” value was “competitive inhibitors” and the Vmax amounted to 0.07078. Further, the IC50 in assay [1] was above 2290 µM. Besides, the concentration for half-maximal inhibition (IC50) in assay [2] is 155 µM and 103 µM.

On to `N#C/C(=C\c1ccc(-c2ccc(Cl)cc2)o1)c1nc2ccccc2s1` [7g, (E)-2-(Benzo[d]thiazol-2-yl)-3-[5-(4-chlorophenyl)furan-2-yl]acrylonitrile], for which, on AChE, the “type of AChE inhibition” value was “competitive inhibitors” and the Vmax came to 0.2236. The molecule also yielded an IC50 in assay [1] of 474 µM. In assay [2], this molecule came in with an IC50 of 64 ± 0.6 µM. The “Selectivity for AChE (selectivity index)” value in assay [2] (defined as IC50 (BuChE)/IC50 (AChE)) stood at 7.40.

For `Cc1nn(-c2ccccc2)c(Cl)c1/C=C(\C#N)c1nc2ccccc2s1` [7h, (E)-2-(Benzo[d]thiazol-2-yl)-3-(5-chloro-3-methyl-1-phenyl-1H-pyrazol-4-yl)acrylonitrile], the IC50 in assay [1] and in assay [2] was above 1330 µM in each case.

In the case of `N#C/C(=C\c1ccco1)c1nc2ccccc2s1` [7i, (E)-2-(Benzo[d]thiazol-2-yl)-3-(2-furyl)acrylonitrile], the figures for the IC50 in assay [1] and in assay [2] were 1883 ± 0.8 µM and above 1980 µM, respectively.

Regarding `N#C/C(=C\c1ccc(-c2ccccc2)cc1)c1nc2ccccc2s1` [7j, (E)-2-(Benzo[d]thiazol-2-yl)-3-(1,1'-biphenyl-4-yl)acrylonitrile], the figures for the half-maximal inhibitory concentration (IC50) in assay [1] and in assay [2] were 1273 ± 0.7 µM and above 1480 µM, respectively.

On to `N#C/C(=C\c1ccccn1)c1nc2ccccc2s1` [7k, (E)-2-(Benzo[d]thiazol-2-yl)-3-(pyridin-2-yl)acrylonitrile], for which the IC50 in assay [1] and in assay [2] was above 1900 µM throughout.

Usually IC50 stands for the point on the concentration scale where inhibition reaches its midpoint. Read a high IC50 as weaker potency in that assay.
